Experimental data reported in patent US20240409886A1, “CULTURE MEDIUM COMPRISING DIPEPTIDES” (Evonik Operations GmbH, priority 2017, published 2024).
Residues, ends and D or L forms follow the SMILES beside them.

Assays:
[1] = tested on: antibody-producing Chinese Hamster Ovary (CHO) cell (subclone DG44); experiment: viable cell density in CHO cell culture with increasing Gln-Asn dipeptide (OFAT); assay type: cell-based
Description: The effect of the Gln-Asn dipeptide on an antibody-producing Chinese Hamster Ovary (CHO) cell (subclone DG44; Life Technologies Corporation, Carlsbad, USA) was investigated using one-factor-at-a-time (OFAT) analysis.
The analysis was based on a comparison of the viable cell density and cell viability in a series of cell cultures, which were conducted at substantially identical culturing conditions, however, with increasing amounts of the Gln-Asn dipeptide in the medium. In order to keep the total amounts of Asn and Gln units (molar basis) in the various culture media constant, the molar concentration of free glutamine and free asparagine was reduced in accordance with the molar amount of the dipeptide added. A series of culture media having increasing amounts of the Gln-Asn dipeptide was prepared by mixing varying amounts of a Base Medium (comprising free Asn and Gln) and a Test Medium (comprising Asn-Gln dipeptide). A commercially available defined cell culture medium (TC-42, TeutoCell AG, Bielefeld, Germany) served as the Base Medium. (Any other suitable cell culture medium could be used.) A Test Medium (TC-42-EVO) was prepared so as to have identical nutrient concentrations compared to the Base Medium, however, instead of free Asn the Test Medium contained an equimolar amount (5.4 mM) of Gin-Asn dipeptide. Furthermore, the free Gln concentration in the Test Medium was set to a value such that the total concentration of Gln units in the Test Medium (i.e., free Gln and dipeptide-Gln) matched the concentration of free Gln in the Base Medium. All other nutrient concentrations in the Test Medium were the same as in the Base Medium. The Base Medium contained 1461.5 mg/l free Gln and 612 mg/l free Asn.
Six cell cultivations were then conducted with media containing varying amounts of the Test Medium and the Base Medium in the following proportions:
All media were set to pH 8.3. Salinity of the culture media was set to 285 mOsmol/kg with NaCl. All cultivations were conducted in on a rotary shaker under identical culture conditions (temperature, humidity, rpm, CO2, etc.), using standard cell culture methods. Three passages of a cell culture are conducted and viable cell density (VCD; 10^6 viable cells/ml) and cell viability (%) was followed in duplicate determinations, using […] determination.
A correlation of the maximum viable cell density (third passage) with the concentration of the dipeptide is observed. The greatest maximum viable cell density is obtained in cultivation #1, i.e., in the cultivation in which all Asn is provided in the form of the Asn-containing dipeptide. The lowest maximum viable cell density is obtained in cultivation #6, i.e., in the cultivation in which all of the Asn in provided as free amino acid. Furthermore, it can be seen that the increased viable cell density is maintained over an extended period of time (day 13 through day 18).

[2] = tested on: antibody-producing Chinese Hamster Ovary (CHO) cell (subclone DG44)
Description: The analysis was based on a comparison of the viable cell density and cell viability in a series of cell cultures, which were conducted at substantially identical culturing conditions, however, with increasing amounts of the Gln-Asn dipeptide in the medium. In order to keep the total amounts of Asn and Gln units (molar basis) in the various culture media constant, the molar concentration of free glutamine and free asparagine was reduced in accordance with the molar amount of the dipeptide added. A series of culture media having increasing amounts of the Gln-Asn dipeptide was prepared by mixing varying amounts of a Base Medium (comprising free Asn and Gln) and a Test Medium (comprising Asn-Gln dipeptide). A commercially available defined cell culture medium (TC-42, TeutoCell AG, Bielefeld, Germany) served as the Base Medium. […] Furthermore, the free Gln concentration in the Test Medium was set to a value such that the total concentration of Gln units in the Test Medium (i.e., free Gln and dipeptide-Gln) matched the concentration of free Gln in the Base Medium. All other nutrient concentrations in the Test Medium were the same as in the Base Medium. […]

NC(=O)CC[C@H](N)C(=O)N[C@@H](CC(N)=O)C(=O)O [Gln-Asn, L-glutaminyl-L-asparagine] (H-Gln-Asn-OH)
viable cell density ([1]; 0.3 mM dipeptide (#5), time 0): 0.285 10^6 cells/ml
viable cell density ([1]; 0.3 mM dipeptide (#5), time 0.89): 0.485 10^6 cells/ml
viable cell density ([1]; 0.3 mM dipeptide (#5), time 3.08): 1.985 10^6 cells/ml
viable cell density ([1]; 0.3 mM dipeptide (#5), time 3.71): 3.325 10^6 cells/ml
viable cell density ([1]; 0.3 mM dipeptide (#5), time 4.08): 0.265 10^6 cells/ml
viable cell density ([1]; 0.3 mM dipeptide (#5), time 4.70): 1.12 10^6 cells/ml
viable cell density ([1]; 0.3 mM dipeptide (#5), time 5.69): 1.555 10^6 cells/ml
viable cell density ([1]; 0.3 mM dipeptide (#5), time 6.88): 3.8 10^6 cells/ml
viable cell density ([1]; 0.3 mM dipeptide (#5), time 7.04): 0.31 10^6 cells/ml
viable cell density ([1]; 0.3 mM dipeptide (#5), time 7.80): 1.17 10^6 cells/ml
viable cell density ([1]; 0.3 mM dipeptide (#5), time 8.78): 2.01 10^6 cells/ml
viable cell density ([1]; 0.3 mM dipeptide (#5), time 9.82): 3.9 10^6 cells/ml
viable cell density ([1]; 0.3 mM dipeptide (#5), time 10.99): 6.065 10^6 cells/ml
viable cell density ([1]; 0.3 mM dipeptide (#5), time 12.02): 8.21 10^6 cells/ml
viable cell density ([1]; 0.3 mM dipeptide (#5), time 12.75): 7.135 10^6 cells/ml
viable cell density ([1]; 0.3 mM dipeptide (#5), time 13.89): 5.13 10^6 cells/ml
viable cell density ([1]; 0.3 mM dipeptide (#5), time 14.74): 5.54 10^6 cells/ml
viable cell density ([1]; 0.3 mM dipeptide (#5), time 15.79): 4.075 10^6 cells/ml
viable cell density ([1]; 0.3 mM dipeptide (#5), time 16.89): 2.775 10^6 cells/ml
viable cell density ([1]; 0.3 mM dipeptide (#5), time 18.06): 1.825 10^6 cells/ml
viable cell density ([1]; 0.8 mM dipeptide (#4), time 0): 0.27 10^6 cells/ml
viable cell density ([1]; 0.8 mM dipeptide (#4), time 0.89): 0.565 10^6 cells/ml
viable cell density ([1]; 0.8 mM dipeptide (#4), time 3.08): 2.285 10^6 cells/ml
viable cell density ([1]; 0.8 mM dipeptide (#4), time 3.71): 3.4 10^6 cells/ml
viable cell density ([1]; 0.8 mM dipeptide (#4), time 4.08): 0.365 10^6 cells/ml
viable cell density ([1]; 0.8 mM dipeptide (#4), time 4.70): 0.665 10^6 cells/ml
viable cell density ([1]; 0.8 mM dipeptide (#4), time 5.69): 1.545 10^6 cells/ml
viable cell density ([1]; 0.8 mM dipeptide (#4), time 6.88): 3.36 10^6 cells/ml
viable cell density ([1]; 0.8 mM dipeptide (#4), time 7.04): 0.32 10^6 cells/ml
viable cell density ([1]; 0.8 mM dipeptide (#4), time 7.80): 1.12 10^6 cells/ml
viable cell density ([1]; 0.8 mM dipeptide (#4), time 8.78): 1.86 10^6 cells/ml
viable cell density ([1]; 0.8 mM dipeptide (#4), time 9.82): 3.6 10^6 cells/ml
viable cell density ([1]; 0.8 mM dipeptide (#4), time 10.99): 6.31 10^6 cells/ml
viable cell density ([1]; 0.8 mM dipeptide (#4), time 12.02): 7.805 10^6 cells/ml
viable cell density ([1]; 0.8 mM dipeptide (#4), time 12.75): 7.545 10^6 cells/ml
viable cell density ([1]; 0.8 mM dipeptide (#4), time 13.89): 5.86 10^6 cells/ml
viable cell density ([1]; 0.8 mM dipeptide (#4), time 14.74): 5.26 10^6 cells/ml
viable cell density ([1]; 0.8 mM dipeptide (#4), time 15.79): 4.065 10^6 cells/ml
viable cell density ([1]; 0.8 mM dipeptide (#4), time 16.89): 3.175 10^6 cells/ml
viable cell density ([1]; 0.8 mM dipeptide (#4), time 18.06): 2.3 10^6 cells/ml
viable cell density ([1]; 1.4 mM dipeptide (#3), time 0): 0.265 10^6 cells/ml
viable cell density ([1]; 1.4 mM dipeptide (#3), time 0.89): 0.495 10^6 cells/ml
viable cell density ([1]; 1.4 mM dipeptide (#3), time 3.08): 1.8 10^6 cells/ml
viable cell density ([1]; 1.4 mM dipeptide (#3), time 3.71): 2.415 10^6 cells/ml
viable cell density ([1]; 1.4 mM dipeptide (#3), time 4.08): 0.315 10^6 cells/ml
viable cell density ([1]; 1.4 mM dipeptide (#3), time 4.70): 0.65 10^6 cells/ml
viable cell density ([1]; 1.4 mM dipeptide (#3), time 5.69): 1.47 10^6 cells/ml
viable cell density ([1]; 1.4 mM dipeptide (#3), time 6.88): 3.365 10^6 cells/ml
viable cell density ([1]; 1.4 mM dipeptide (#3), time 7.04): 0.33 10^6 cells/ml
viable cell density ([1]; 1.4 mM dipeptide (#3), time 7.80): 0.77 10^6 cells/ml
viable cell density ([1]; 1.4 mM dipeptide (#3), time 8.78): 1.615 10^6 cells/ml
viable cell density ([1]; 1.4 mM dipeptide (#3), time 9.82): 2.97 10^6 cells/ml
viable cell density ([1]; 1.4 mM dipeptide (#3), time 10.99): 5.25 10^6 cells/ml
viable cell density ([1]; 1.4 mM dipeptide (#3), time 12.02): 8.29 10^6 cells/ml
viable cell density ([1]; 1.4 mM dipeptide (#3), time 12.75): 9.23 10^6 cells/ml
viable cell density ([1]; 1.4 mM dipeptide (#3), time 13.89): 8.975 10^6 cells/ml
viable cell density ([1]; 1.4 mM dipeptide (#3), time 14.74): 9.58 10^6 cells/ml
viable cell density ([1]; 1.4 mM dipeptide (#3), time 15.79): 9.535 10^6 cells/ml
viable cell density ([1]; 1.4 mM dipeptide (#3), time 16.89): 7.395 10^6 cells/ml
viable cell density ([1]; 1.4 mM dipeptide (#3), time 18.06): 5.985 10^6 cells/ml
viable cell density ([1]; 4.3 mM dipeptide (#2), time 0): 0.27 10^6 cells/ml
viable cell density ([1]; 4.3 mM dipeptide (#2), time 0.89): 0.51 10^6 cells/ml
viable cell density ([1]; 4.3 mM dipeptide (#2), time 3.08): 1.615 10^6 cells/ml
viable cell density ([1]; 4.3 mM dipeptide (#2), time 3.71): 2.13 10^6 cells/ml
viable cell density ([1]; 4.3 mM dipeptide (#2), time 4.08): 0.3 10^6 cells/ml
viable cell density ([1]; 4.3 mM dipeptide (#2), time 4.70): 0.54 10^6 cells/ml
viable cell density ([1]; 4.3 mM dipeptide (#2), time 5.69): 1.545 10^6 cells/ml
viable cell density ([1]; 4.3 mM dipeptide (#2), time 6.88): 3.555 10^6 cells/ml
viable cell density ([1]; 4.3 mM dipeptide (#2), time 7.04): 0.305 10^6 cells/ml
viable cell density ([1]; 4.3 mM dipeptide (#2), time 7.80): 1.045 10^6 cells/ml
viable cell density ([1]; 4.3 mM dipeptide (#2), time 8.78): 1.545 10^6 cells/ml
viable cell density ([1]; 4.3 mM dipeptide (#2), time 9.82): 2.8 10^6 cells/ml
viable cell density ([1]; 4.3 mM dipeptide (#2), time 10.99): 5.115 10^6 cells/ml
viable cell density ([1]; 4.3 mM dipeptide (#2), time 12.02): 7.215 10^6 cells/ml
viable cell density ([1]; 4.3 mM dipeptide (#2), time 12.75): 9.42 10^6 cells/ml
viable cell density ([1]; 4.3 mM dipeptide (#2), time 13.89): 9.645 10^6 cells/ml
viable cell density ([1]; 4.3 mM dipeptide (#2), time 14.74): 9.985 10^6 cells/ml
viable cell density ([1]; 4.3 mM dipeptide (#2), time 15.79): 11.08 10^6 cells/ml
viable cell density ([1]; 4.3 mM dipeptide (#2), time 16.89): 9.195 10^6 cells/ml
viable cell density ([1]; 4.3 mM dipeptide (#2), time 18.06): 8.905 10^6 cells/ml
viable cell density ([1]; 5.4 mM dipeptide (#1), time 0): 0.28 10^6 cells/ml
viable cell density ([1]; 5.4 mM dipeptide (#1), time 0.89): 0.59 10^6 cells/ml
viable cell density ([1]; 5.4 mM dipeptide (#1), time 3.08): 1.38 10^6 cells/ml
viable cell density ([1]; 5.4 mM dipeptide (#1), time 3.71): 1.64 10^6 cells/ml
viable cell density ([1]; 5.4 mM dipeptide (#1), time 4.08): 0.365 10^6 cells/ml
viable cell density ([1]; 5.4 mM dipeptide (#1), time 4.70): 0.56 10^6 cells/ml
viable cell density ([1]; 5.4 mM dipeptide (#1), time 5.69): 1.33 10^6 cells/ml
viable cell density ([1]; 5.4 mM dipeptide (#1), time 6.88): 3.16 10^6 cells/ml
viable cell density ([1]; 5.4 mM dipeptide (#1), time 7.04): 0.335 10^6 cells/ml
viable cell density ([1]; 5.4 mM dipeptide (#1), time 7.80): 0.665 10^6 cells/ml
viable cell density ([1]; 5.4 mM dipeptide (#1), time 8.78): 1.26 10^6 cells/ml
viable cell density ([1]; 5.4 mM dipeptide (#1), time 9.82): 2.67 10^6 cells/ml
viable cell density ([1]; 5.4 mM dipeptide (#1), time 10.99): 3.57 10^6 cells/ml
viable cell density ([1]; 5.4 mM dipeptide (#1), time 12.02): 4.91 10^6 cells/ml
viable cell density ([1]; 5.4 mM dipeptide (#1), time 12.75): 6.415 10^6 cells/ml
viable cell density ([1]; 5.4 mM dipeptide (#1), time 13.89): 8.285 10^6 cells/ml
viable cell density ([1]; 5.4 mM dipeptide (#1), time 14.74): 11.695 10^6 cells/ml
viable cell density ([1]; 5.4 mM dipeptide (#1), time 15.79): 10.075 10^6 cells/ml
viable cell density ([1]; 5.4 mM dipeptide (#1), time 16.89): 7.995 10^6 cells/ml
viable cell density ([1]; 5.4 mM dipeptide (#1), time 18.06): 6.6 10^6 cells/ml
maximum viable cell density (third passage) ([1]; cultivation #1, all Asn provided in the form of the dipeptide (5.4 mM), compared among cultivations #1-6): greatest
cell viability at day 18 ([2]; high concentrations of the dipeptide (cultivations #1, #2, #3)): relatively high viability
cell viability at the end of experiment ([2]; lower concentration of the dipeptide (cultivations #4, #5)): significantly reduced cell viability
